Measurements as given in US11867689B2, “Engineered renal tissues, arrays thereof, and methods of making the same” (Organovo, Inc., priority 2014, dated 2024).

How the values were obtained:
[1] = system: interstitial tissue alone
[2] = system: 3D renal tubule model; assay type: cell-based, human
Excerpt: To reduce the thickness and cellularity of the interstitial layer, the cell ratio was changed to 50% fibroblasts/50% HUVEC the concentration of the cells was 1.25×10^8 cells/mL. The interstitial layer of the renal proximal tubule model is composed of renal fibroblasts and HUVECs in Novogel® 2.0. […] E-cadherin (green) at the lateral membranes between RPTECs corresponds to tight junctions (FIGS. 9A, B and C). Further, the basement membrane corresponding to the interstitial layer produces collagen (FIGS. 9A and B; stained with red). H & E staining is shown (FIG. 10A), and brush borders are indicated (FIG. 11A, arrows). Trichrome staining indicates collagen secretion (FIGS. 10B, blue and 11B, arrows), and CD31 staining indicates the presence of HUVEC networks (FIG. 12, asterisks). […] As a positive control, hTERT-RPTEC cells cultured as a monolayer in 2D were assessed. As a negative control, bioprinted renal interstitial tissues without epithelium were also assayed to verify that the detected GGT activity was epithelial-specific. At culture day 3, 10, 14, 21, or 28, 2D hTERT-RPTEC, 3D interstitium tissues, or 3D bioprinted tubule tissues were homogenized and assessed for functional GGT enzymatic activity using a colorimetric assay available from Sigma-Aldrich. […]

[3] = system: 3D renal tubule model (interstitial tissue and epithelial tissue); assay type: cell-based, human
[4] = system: epithelial layer comprising primary cells (070615-RPTEC); assay: GGT activity, renal tubule model with primary epithelial layer; assay type: cell-based, human; settings: primary cells (070615-RPTEC) compared with hTERT-RPTEC; FIG. 23B
Protocol: To assess the maturity and function of the epithelial component of the 3D bioprinted tubule model, tissues were homogenized and assayed for gamma glutamyl-transferase (GGT) activity. […] As a positive control, hTERT-RPTEC cells cultured as a monolayer in 2D were assessed. […] At culture day 3, 10, 14, 21, or 28, 2D hTERT-RPTEC, 3D interstitium tissues, or 3D bioprinted tubule tissues were homogenized and assessed for functional GGT enzymatic activity using a colorimetric assay available from Sigma-Aldrich.

[5] = system: 3D renal tubule model; assay: histology of treated 3D renal tubule models; assay type: cell-based, human; settings: 50 ng/mL TGFβ; FIG. 22D

## C[C@@H]1[C@H](O)[C@@H](C)/C=C/C=C/C=C/C=C/C=C/C=C/C=C/[C@H](O[C@@H]2O[C@H](C)[C@@H](O)[C@H](N)[C@@H]2O)C[C@@H]2O[C@](O)(C[C@@H](O)C[C@@H](O)[C@H](O)CC[C@@H](O)C[C@@H](O)CC(=O)O[C@H]1C)C[C@H](O)[C@H]2C(=O)O [AmpB, amphotericin B]
[1]
  toxicity by alamarBlue assay: resistant
[2]
  GGT activity: dose dependent reduction in GGT activity
[3]
  toxicity by alamarBlue assay: dose dependent cytotoxicity

## N.N.[Cl][Pt][Cl] [cisplatin]
[4]
  sensitivity in the GGT assay, primary versus immortalized cells: enhanced sensitivity
[2]
  GGT activity: dose dependent reduction in GGT activity

## TGFβ: listed among common cytotoxic agents; treatment at 50 ng/mL increased fibrosis
[5]
  Masson's trichrome staining histology (fibrosis): increase in fibrosis without the overt cell death
